Columns and labels:
[1] = Safety and tolerability, dose-limiting toxicities; format: in vivo, human; details: for Dose-limiting toxicity, hyperbilirubinemia (number of patients): days 1–8
AAG and albumin = details: bound to both AAG and albumin; cited from earlier work
[2] = cited from earlier work
HCC = experiment: Response assessment; format: in vivo, human; details: of 11 HCC patients; 3 based solely on symptomatic deterioration

CS(=O)(=O)c1ccc(C(=O)Nc2ccc(Cl)c(-c3ccccn3)c2)c(Cl)c1 [vismodegib]
AEs grade 3 or 4 in severity ([1]; all cohorts): 67.7% | Total patients who experienced DLTs of hyperbilirubinemia ([1]; all cohorts, 31 patients): three | Patients who experienced at least one AE ([1]; all groups, 31 patients): 96.8% | Adverse event frequency: abdominal pain ([1]; all patients): 22.6% | Adverse event frequency: decreased appetite ([1]; all patients): 22.6% | Adverse event frequency: dysgeusia ([1]; all patients): 22.6% | Adverse event frequency: fatigue ([1]; all patients): 67.7% | Adverse event frequency: muscle spasms ([1]; all patients): 22.6% | Adverse event frequency: nausea ([1]; all patients): 35.5% | Adverse event frequency: vomiting ([1]; all patients): 22.6% | Serious AE: abdominal pain ([1]; all patients (2 patients)): 6.5% | Serious AE: hyperbilirubinemia ([1]; all patients (2 patients)): 6.5% | Serious AE: upper gastrointestinal hemorrhage ([1]; all patients (2 patients)): 6.5% | Patients who experienced serious AEs ([1]; all patients (16 patients)): 51.6% | AEs grade 3 or 4 in severity ([1]; control cohort): 44.4% | AEs grade 3 or 4 in severity ([1]; mild cohort): 75% | Patients who experienced serious AEs ([1]; mild cohort (4 patients)): 50% | Adverse events leading to withdrawal of vismodegib: intracranial bleed ([1]; mild cohort n = 8): 1 (intracranial bleed) | Deaths due to progression of disease (number of patients) ([1]; mild cohort n = 8): 1 | Dose-limiting toxicity, hyperbilirubinemia (number of patients) ([1]; mild cohort n = 8, oral 150 mg daily): 0 | AEs grade 3 or 4 in severity ([1]; moderate cohort): 87.5% | Patients who experienced serious AEs ([1]; moderate cohort (6 patients)): 75% | Adverse events leading to withdrawal of vismodegib: GI bleeds ([1]; moderate cohort n = 8): 2 | Adverse events leading to withdrawal of vismodegib: hyperbilirubinemia ([1]; moderate cohort n = 8): 1 | Deaths due to progression of disease (number of patients) ([1]; moderate cohort n = 8): 3 | Patients who experienced serious AEs ([1]; normal cohort (3 patients)): 33.3% | Adverse events leading to withdrawal of vismodegib ([1]; normal cohort n = 9): 0 | Deaths due to progression of disease (number of patients) ([1]; normal cohort n = 9): 0 | Dose-limiting toxicity, hyperbilirubinemia (number of patients) ([1]; normal cohort n = 9, oral 150 mg daily): 0 | AEs grade 3 or 4 in severity ([1]; severe cohort): 66.7% | Patients who experienced serious AEs ([1]; severe cohort (3 patients)): 50% | Adverse events leading to withdrawal of vismodegib: fatigue ([1]; severe cohort n = 6): 1 | Adverse events leading to withdrawal of vismodegib: hyperbilirubinemia ([1]; severe cohort n = 6): 2 | Adverse events leading to withdrawal of vismodegib: hyponatremia ([1]; severe cohort n = 6): 1 | Adverse events leading to withdrawal of vismodegib: leukocytosis ([1]; severe cohort n = 6): 1 | Deaths due to progression of disease (number of patients) ([1]; severe cohort n = 6): 1 | Plasma protein bound (AAG and albumin): greater than 98% | Percentage of dose excreted in urine over a 24-h interval (all patients, regardless of hepatic function, day 8): < 1% | Renal clearance (CLR) (patients with hepatic impairment compared to normal hepatic function): lower | Cmax interpatient coefficient of variation [2]: ~37.4% | PK variability explained by AAG levels [2]: > 70% | HCC patients with progressive disease (HCC): nine

Source: publication PMC5520972 (Cancer chemotherapy and pharmacology, 2017)
